Source: PubChem BioAssay AID248 (DTP/NCI, 2004)
Values joined by “and” are separate entries in the source; they are usually repeats but may differ in a detail not shown here. Equal values may be shown once. Toxic doses and inconclusive results are not listed. No stated cut-off is given here; in the data, active means T/C of 150% or more; inactive means T/C below 125%.

Test system: L1210 leukemia ip in BDF1 mice, survival T/C
Experiment: NCI In Vivo Anticancer Drug Screen. Data for tumor model L1210 Leukemia (intraperitoneal) in B6D2F1 (BDF1) mice
Conditions: endpoint: mean survival time, higher = longer survival
Outline: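 Transplantable tumor model; survival measured in treated vs vehicle control mice. Value = treated/control.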

[1] = dose: 100.0 mg/kg/injection, schedule: Q01DX001 (ip), vehicle: saline
[2] = dose: 200.0 mg/kg/injection, schedule: Q01DX001 (ip), vehicle: saline
[3] = dose: 400.0 mg/kg/injection, schedule: Q01DX001 (ip), vehicle: saline
[4] = dose: 100.0 mg/kg/injection, schedule: Q01DX009 (ip), vehicle: saline
[5] = dose: 200.0 mg/kg/injection, schedule: Q01DX009 (ip), vehicle: saline
[6] = dose: 400.0 mg/kg/injection, schedule: Q01DX009 (ip), vehicle: saline
[7] = dose: 100.0 mg/kg/injection, schedule: Q01DX009 (ip), vehicle: Klucel (hydroxypropylcellulose) (HPC)
[8] = dose: 100.0 mg/kg/injection, schedule: Q04DX003 (ip), vehicle: Klucel (hydroxypropylcellulose) (HPC)
[9] = dose: 400.0 mg/kg/injection, schedule: Q04DX003 (ip), vehicle: Klucel (hydroxypropylcellulose) (HPC)
[10] = dose: 100.0 mg/kg/injection, schedule: Q01DX001 (ip), vehicle: Klucel (hydroxypropylcellulose) (HPC)
[11] = dose: 200.0 mg/kg/injection, schedule: Q01DX001 (ip), vehicle: Klucel (hydroxypropylcellulose) (HPC)
[12] = dose: 10.0 mg/kg/injection, schedule: Q01DX001 (ip), vehicle: saline
[13] = dose: 20.0 mg/kg/injection, schedule: Q01DX001 (ip), vehicle: saline
[14] = dose: 40.0 mg/kg/injection, schedule: Q01DX001 (ip), vehicle: saline
[15] = dose: 75.0 mg/kg/injection, schedule: Q01DX001 (ip), vehicle: saline
[16] = dose: 150.0 mg/kg/injection, schedule: Q01DX001 (ip), vehicle: saline

Measured: T/C

CC(=O)Nc1ccccc1O
inactive: dose: 50.0 mg/kg/injection, schedule: Q04DX002 (ip), vehicle: Klucel (hydroxypropylcellulose) (HPC) 94 % of control | dose: 75.0 mg/kg/injection, schedule: Q01DX009 (ip), vehicle: saline 95 % of control | dose: 100.0 mg/kg/injection, schedule: Q04DX002 (ip), vehicle: Klucel (hydroxypropylcellulose) (HPC) 94 % of control and 102 % of control | dose: 150.0 mg/kg/injection, schedule: Q01DX009 (ip), vehicle: saline 113 % of control | dose: 200.0 mg/kg/injection, schedule: Q04DX002 (ip), vehicle: Klucel (hydroxypropylcellulose) (HPC) 102 % of control | dose: 300.0 mg/kg/injection, schedule: Q01DX009 (ip), vehicle: saline 89 % of control | dose: 400.0 mg/kg/injection, schedule: Q04DX002 (ip), vehicle: Klucel (hydroxypropylcellulose) (HPC) 113 % of control

Cc1ccc(S(C)=O)cc1 (stereo unspecified)
inactive: [1] 102 % of control | [2] 95 % of control | [3] 95 % of control

O=C(O)C(CCc1ccccc1)(CCc1ccccc1)C(=O)O
inactive: [4] 95 % of control | [5] 94 % of control | [6] 111 % of control

O=C(Nc1ccccc1)Oc1c(Cl)cc(Cl)c(Cl)c1[N+](=O)[O-]
inactive: dose: 25.0 mg/kg/injection, schedule: Q01DX009 (ip), vehicle: Klucel (hydroxypropylcellulose) (HPC) 100 % of control | dose: 50.0 mg/kg/injection, schedule: Q01DX009 (ip), vehicle: Klucel (hydroxypropylcellulose) (HPC) 93 % of control | [7] 91 % of control

CCOc1ccc(/C=N\N=C\c2ccc(OCC)cc2)cc1
inactive: [7] 89 % of control | [8] 93 % of control | [9] 97 % of control

CC(Cc1ccc(O)c(O)c1)C(C)Cc1ccc(O)c(O)c1 (stereo unspecified)
inactive: dose: 50.0 mg/kg/injection, schedule: Q01DX009 (ip), vehicle: saline 98 % of control | [4] 100 % of control | [5] 96 % of control | [6] 100 % of control

CCCCCCCCC(=O)NCc1cccc(OC)c1
inactive: [8] 95 % of control | dose: 200.0 mg/kg/injection, schedule: Q04DX003 (ip), vehicle: Klucel (hydroxypropylcellulose) (HPC) 95 % of control | [9] 105 % of control

Cc1cc(C)c(N(CC(=O)O)S(=O)(=O)c2ccccc2)c(Sc2ccccc2)c1
inactive: [10] 113 % of control | [11] 98 % of control | dose: 400.0 mg/kg/injection, schedule: Q01DX001 (ip), vehicle: Klucel (hydroxypropylcellulose) (HPC) 100 % of control

O=C(Nc1ccc(Cl)cc1Cl)c1ccc2c(c1)C(=O)OC2=O
inactive: dose: 100.0 mg/kg/injection, schedule: Q01DX009 (ip), vehicle: saline with Tween-80 90 % of control | dose: 200.0 mg/kg/injection, schedule: Q01DX009 (ip), vehicle: saline with Tween-80 92 % of control | dose: 400.0 mg/kg/injection, schedule: Q01DX009 (ip), vehicle: saline with Tween-80 92 % of control

C=COC(=O)CCCCCCC (tested in a mixture with another compound)
inactive: dose: 4.0 mg/kg/injection, schedule: Q01DX001 (ip), vehicle: acetone 89 % of control | dose: 5.0 mg/kg/injection, schedule: Q01DX001 (ip), vehicle: acetone 94 % of control | dose: 5.0 mg/kg/injection, schedule: Q01DX001 (ip), vehicle: saline 97 % of control | dose: 6.0 mg/kg/injection, schedule: Q01DX001 (ip), vehicle: acetone 106 % of control | dose: 10.0 mg/kg/injection, schedule: Q01DX001 (ip), vehicle: acetone 93 % of control | [12] 87 % of control | dose: 20.0 mg/kg/injection, schedule: Q01DX001 (ip), vehicle: acetone 92 % of control | [13] 101 % of control | dose: 40.0 mg/kg/injection, schedule: Q01DX001 (ip), vehicle: acetone 95 % of control | [14] 97 % of control | dose: 80.0 mg/kg/injection, schedule: Q01DX001 (ip), vehicle: acetone 90 % of control | dose: 80.0 mg/kg/injection, schedule: Q01DX001 (ip), vehicle: saline 102 % of control | [1] 110 % of control and 104 % of control and 105 % of control | [2] 94 % of control | [3] 100 % of control and 101 % of control

CNC(=O)Nc1ccc(C(=O)OCC(C)C)cc1
inactive: [7] 104 % of control | dose: 200.0 mg/kg/injection, schedule: Q01DX009 (ip), vehicle: Klucel (hydroxypropylcellulose) (HPC) 115 % of control | dose: 400.0 mg/kg/injection, schedule: Q01DX009 (ip), vehicle: Klucel (hydroxypropylcellulose) (HPC) 104 % of control

CC1(C)COc2cc([N+](=O)[O-])cc(N)c2N1
inactive: [15] 107 % of control | dose: 75.0 mg/kg/injection, schedule: Q04DX003 (ip), vehicle: acetone 110 % of control | [16] 100 % of control | dose: 150.0 mg/kg/injection, schedule: Q04DX003 (ip), vehicle: acetone 95 % of control | dose: 300.0 mg/kg/injection, schedule: Q01DX001 (ip), vehicle: saline 96 % of control | dose: 300.0 mg/kg/injection, schedule: Q04DX003 (ip), vehicle: acetone 101 % of control

CNC1C(=O)C2CCC(C2)C1c1ccccc1 (stereo unspecified)
inactive: [1] 108 % of control | [2] 100 % of control | [3] 96 % of control

O=C1CCCC1CNCc1ccccc1 (stereo unspecified)
inactive: [15] 103 % of control | [16] 100 % of control

COP(=O)(OC)C(=O)c1ccc([N+](=O)[O-])cc1
inactive: [1] 98 % of control | [2] 95 % of control | [3] 103 % of control

C=Cc1cnc(NC(C)=O)c(C#N)n1
inactive: [10] 103 % of control | [11] 100 % of control

c1ccc(CC[n+]2ccccc2)cc1
inactive: [12] 106 % of control | [13] 94 % of control | [14] 95 % of control

CCCC(=O)OC(=O)N/C=C/NC(=O)OC(=O)CCC
inactive: dose: 100.0 mg/kg/injection, schedule: Q01DX001 (ip), vehicle: alcohol 103 % of control | dose: 200.0 mg/kg/injection, schedule: Q01DX001 (ip), vehicle: alcohol 103 % of control | dose: 400.0 mg/kg/injection, schedule: Q01DX001 (ip), vehicle: alcohol 94 % of control

COc1ccc(C(=O)C(C)C)cc1
inactive: dose: 37.5 mg/kg/injection, schedule: Q01DX009 (ip), vehicle: saline sonified 95 % of control | dose: 75.0 mg/kg/injection, schedule: Q01DX009 (ip), vehicle: saline sonified 93 % of control | dose: 150.0 mg/kg/injection, schedule: Q01DX009 (ip), vehicle: saline sonified 103 % of control

OC1(CBr)CCCCC1
inactive: dose: 100.0 mg/kg/injection, schedule: Q04DX003 (ip), vehicle: saline with Tween-80 102 % of control | dose: 200.0 mg/kg/injection, schedule: Q04DX003 (ip), vehicle: saline with Tween-80 98 % of control | dose: 400.0 mg/kg/injection, schedule: Q04DX003 (ip), vehicle: saline with Tween-80 95 % of control

NC(=O)OCC#CCN1CCCC1
inactive: dose: 5.0 mg/kg/injection, schedule: Q04DX003 (ip), vehicle: saline with Tween-80 96 % of control | dose: 10.0 mg/kg/injection, schedule: Q04DX003 (ip), vehicle: saline with Tween-80 98 % of control | dose: 20.0 mg/kg/injection, schedule: Q04DX003 (ip), vehicle: saline with Tween-80 93 % of control
